According to ChEMBL document CHEMBL1201862, “PubChem BioAssay data set” (2004):
Active and inactive are the calls of the source.

What was measured:
Steroidogenic factor 1 = Steroidogenic factor 1 (Homo sapiens, UniProt Q13285); experiment: Counterscreen for inverse agonists of the liver receptor homolog-1 (LRH-1; NR5A2): Luminescence-based cell-based high throughput dose response assay to identify inverse agonists of the Steroidogenic Factor 1 Nuclear Receptor (SF1; NR5A1).; format: functional
[1] = nonselective StAR promoter luciferase inhibitors – cell-based, luminescence, luciferase reporter, counter-screen for LRH-1 inverse agonist project, dose response (AID 651969); format: functional
[2] = target: Nuclear receptor subfamily 5 group A member 2 (Homo sapiens, UniProt O00482); format: functional, cell-based;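 note: HEK293T cells transfected with LRH-1 and a StAR promoter luciferase reporter; potency for inhibitors that lower LRH-1 driven reporter light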
[3] = target: T1, Histone-lysine N-methyltransferase NSD2 (Homo sapiens, UniProt O96028); format: biochemical
T1 sequence (O96028 whole entry): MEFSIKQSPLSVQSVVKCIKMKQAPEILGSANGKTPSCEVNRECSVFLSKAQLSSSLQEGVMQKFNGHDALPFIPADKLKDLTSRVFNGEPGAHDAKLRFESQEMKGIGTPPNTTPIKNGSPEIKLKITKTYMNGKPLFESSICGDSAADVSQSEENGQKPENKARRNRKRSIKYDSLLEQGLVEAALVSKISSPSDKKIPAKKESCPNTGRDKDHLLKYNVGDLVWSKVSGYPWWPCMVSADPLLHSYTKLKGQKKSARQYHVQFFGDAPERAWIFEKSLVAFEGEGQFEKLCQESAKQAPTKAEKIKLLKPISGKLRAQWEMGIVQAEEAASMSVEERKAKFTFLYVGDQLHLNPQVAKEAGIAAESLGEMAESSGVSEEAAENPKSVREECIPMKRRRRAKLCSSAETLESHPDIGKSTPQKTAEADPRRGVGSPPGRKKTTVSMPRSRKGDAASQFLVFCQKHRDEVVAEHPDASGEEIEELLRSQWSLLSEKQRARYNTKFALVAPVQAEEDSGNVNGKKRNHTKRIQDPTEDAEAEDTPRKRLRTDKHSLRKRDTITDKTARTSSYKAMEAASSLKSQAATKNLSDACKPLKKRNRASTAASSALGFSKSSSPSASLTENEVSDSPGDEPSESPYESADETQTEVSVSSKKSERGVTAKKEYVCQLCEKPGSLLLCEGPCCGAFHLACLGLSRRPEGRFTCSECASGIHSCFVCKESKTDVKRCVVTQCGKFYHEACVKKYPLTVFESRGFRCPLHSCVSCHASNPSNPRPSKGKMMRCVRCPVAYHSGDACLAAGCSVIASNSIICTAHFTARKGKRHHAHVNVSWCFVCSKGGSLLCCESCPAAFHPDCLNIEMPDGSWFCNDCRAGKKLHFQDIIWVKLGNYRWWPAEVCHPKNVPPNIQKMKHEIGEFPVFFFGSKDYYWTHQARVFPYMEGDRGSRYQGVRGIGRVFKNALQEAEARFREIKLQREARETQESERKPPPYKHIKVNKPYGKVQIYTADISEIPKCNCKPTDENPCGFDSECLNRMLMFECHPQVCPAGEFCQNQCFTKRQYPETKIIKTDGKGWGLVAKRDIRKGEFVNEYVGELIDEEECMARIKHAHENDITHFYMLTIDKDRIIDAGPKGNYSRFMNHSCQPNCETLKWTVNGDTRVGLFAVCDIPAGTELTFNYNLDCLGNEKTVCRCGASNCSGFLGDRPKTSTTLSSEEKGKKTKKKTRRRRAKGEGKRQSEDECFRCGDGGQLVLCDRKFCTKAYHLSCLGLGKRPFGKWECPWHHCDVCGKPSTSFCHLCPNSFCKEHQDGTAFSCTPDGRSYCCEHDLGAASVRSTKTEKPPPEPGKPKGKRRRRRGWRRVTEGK

Protein Wnt-3a = Protein Wnt-3a (Mus musculus, UniProt P27467); experiment: antagonism of Wnt3a pathway luciferase reporter – Wnt-LIGHT cells, luminescence, selectivity assay for Gli-SUFU antagonist project, dose response (AID 651570); format: functional; settings: read-out: IC50_Mean;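 note: Wnt-LIGHT reporter cells stimulated with conditioned medium from Wnt3a-producing cells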
[4] = target: Adenosylmethionine-8-amino-7-oxononanoate aminotransferase (Mycobacterium tuberculosis, UniProt P9WQ81); experiment: Mycobacterium tuberculosis BioA enzyme inhibitor Measured in Biochemical System Using Plate Reader - 2163-02_Inhibitor_Dose_CherryPick_Activity.; format: functional, Mycobacterium tuberculosis UT205
BJ [5] = experiment: BJ-TERT-LT-ST fibroblast viability loss – cell-based, RAS-independent, luminescence, dose response (AID 1935); format: functional; settings: Homo sapiens;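 note: BJ fibroblasts immortalized with TERT plus LT and ST oncogenes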
BJ [6] = experiment: cells; format: functional, cell-based; settings: Homo sapiens
BJ [7] = experiment: growth inhibition of engineered Ras-driven BJ cells – cell-based, alamar blue fluorescence, cherrypicked samples, dose response (AID 2631); format: functional; settings: Homo sapiens;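 note: confirmatory dose-response assay in RAS-dependent BJ fibroblasts engineered with TERT, LT and ST, with cytotoxicity read by fluorescence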
[8] = DRD fibroblast viability loss – cell-based, non-viral oncogenic, luminescence, dose response (AID 1934); format: functional; settings: Homo sapiens
BJ [9] = experiment: BJ-TERT fibroblast viability loss – cell-based, RAS-independent, luminescence, dose response (AID 1933); format: functional; settings: Homo sapiens
Cytochrome P450 1A2 = target: T2, Cytochrome P450 1A2 (Homo sapiens, UniProt P05177);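 note: PubChem cytochrome P450 panel assay, CYP1A2 panel member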
T2 sequence (P05177 whole entry): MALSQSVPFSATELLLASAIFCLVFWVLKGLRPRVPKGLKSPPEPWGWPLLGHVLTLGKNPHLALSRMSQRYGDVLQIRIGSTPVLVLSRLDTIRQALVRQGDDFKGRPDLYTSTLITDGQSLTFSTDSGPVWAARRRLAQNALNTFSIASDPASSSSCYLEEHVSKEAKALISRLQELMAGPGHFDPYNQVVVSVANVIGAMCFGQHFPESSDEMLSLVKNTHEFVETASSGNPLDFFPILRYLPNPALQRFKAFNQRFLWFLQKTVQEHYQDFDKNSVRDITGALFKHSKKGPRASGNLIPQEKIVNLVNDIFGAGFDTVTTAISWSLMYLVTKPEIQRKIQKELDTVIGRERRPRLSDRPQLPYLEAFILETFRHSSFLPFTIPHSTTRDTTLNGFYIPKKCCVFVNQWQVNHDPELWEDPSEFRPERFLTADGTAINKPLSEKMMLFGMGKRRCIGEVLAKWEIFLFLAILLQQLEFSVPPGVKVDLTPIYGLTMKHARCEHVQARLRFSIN

[10] = target: T3, Latent membrane protein 1 (Human herpesvirus 4 (strain B95-8), UniProt P03230); experiment: LMP1 TES1 pathway selectivity over dsRED control – imaging, HEK293T, dual-color eGFP/dsRED, cherry-picks, selectivity assay for LMP1 NF-kB inhibitor project, dose response (AID 588398); format: functional, cell-based
T3 sequence (P03230 whole entry): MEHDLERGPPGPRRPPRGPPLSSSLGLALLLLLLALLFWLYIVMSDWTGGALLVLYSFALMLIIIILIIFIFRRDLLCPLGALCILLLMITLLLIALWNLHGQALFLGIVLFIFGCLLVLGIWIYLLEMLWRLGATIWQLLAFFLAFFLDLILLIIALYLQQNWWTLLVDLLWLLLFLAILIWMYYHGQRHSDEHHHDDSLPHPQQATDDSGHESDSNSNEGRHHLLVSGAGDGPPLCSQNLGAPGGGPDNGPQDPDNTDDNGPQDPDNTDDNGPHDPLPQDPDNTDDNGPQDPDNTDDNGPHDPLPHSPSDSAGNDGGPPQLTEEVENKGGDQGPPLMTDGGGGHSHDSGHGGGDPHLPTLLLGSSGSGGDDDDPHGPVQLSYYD

HEK293 = experiment: EBV LMP1 TES2 canonical NF-kB signalling blockers – cell-based, HEK293, luciferase, cherry-pick, dose response (AID 588343); format: functional; settings: Homo sapiens
Cytochrome P450 2C19 = Cytochrome P450 2C19 (Homo sapiens, UniProt P33261); experiment: Cytochrome panel assay with activity outcomes. Panel member name: p450-cyp2c19 Compounds with AC50 equal or less than 10 uM are considered active; format: functional; settings: read-out: AC50
Cytochrome P450 2D6 = Cytochrome P450 2D6 (Homo sapiens, UniProt P10635);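 note: CYP2D6 member of a cytochrome P450 panel assay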
[11] = blockers of HIV-1 envelope-mediated cell-cell fusion – cherry-pick, dose response (AID 652057); format: functional, cell-based
[12] = HIV-1 AD8 envelope cell-cell fusion blockers – cherry-pick, dose response (AID 652062); format: functional, cell-based;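 note: luciferase signal from cell-cell fusion driven by HIV-1 clade B AD8 Env; potency is for inhibitors of fusion seen as a drop in luminescence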

Adenosylmethionine-8-amino-7-oxononanoate aminotransferase, sequence (P9WQ81 whole entry): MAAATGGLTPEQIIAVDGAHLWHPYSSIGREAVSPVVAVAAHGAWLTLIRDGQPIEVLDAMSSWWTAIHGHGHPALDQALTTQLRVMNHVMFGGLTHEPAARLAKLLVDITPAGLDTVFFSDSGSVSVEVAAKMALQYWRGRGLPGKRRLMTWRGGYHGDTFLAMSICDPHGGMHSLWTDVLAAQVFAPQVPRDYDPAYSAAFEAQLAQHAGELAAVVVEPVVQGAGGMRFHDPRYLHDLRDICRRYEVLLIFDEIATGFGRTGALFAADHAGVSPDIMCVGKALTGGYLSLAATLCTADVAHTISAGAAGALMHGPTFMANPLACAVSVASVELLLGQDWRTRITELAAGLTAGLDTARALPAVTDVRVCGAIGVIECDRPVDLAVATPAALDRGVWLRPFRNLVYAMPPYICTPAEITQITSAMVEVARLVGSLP
Cytochrome P450 2C19, sequence (P33261 whole entry): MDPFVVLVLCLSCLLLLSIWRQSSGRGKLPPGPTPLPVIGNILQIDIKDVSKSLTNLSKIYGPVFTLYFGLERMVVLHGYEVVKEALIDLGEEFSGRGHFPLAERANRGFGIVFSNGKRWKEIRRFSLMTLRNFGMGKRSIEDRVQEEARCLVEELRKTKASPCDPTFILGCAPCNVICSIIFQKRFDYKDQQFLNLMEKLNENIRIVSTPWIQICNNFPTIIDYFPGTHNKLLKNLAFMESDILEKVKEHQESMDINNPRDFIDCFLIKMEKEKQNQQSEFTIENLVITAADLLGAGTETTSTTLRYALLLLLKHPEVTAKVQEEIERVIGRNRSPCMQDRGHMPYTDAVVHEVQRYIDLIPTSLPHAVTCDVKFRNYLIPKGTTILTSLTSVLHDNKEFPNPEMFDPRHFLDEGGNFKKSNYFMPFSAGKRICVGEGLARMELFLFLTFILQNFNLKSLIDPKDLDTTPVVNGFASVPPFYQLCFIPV
Nuclear receptor subfamily 5 group A member 2, sequence (O00482 whole entry): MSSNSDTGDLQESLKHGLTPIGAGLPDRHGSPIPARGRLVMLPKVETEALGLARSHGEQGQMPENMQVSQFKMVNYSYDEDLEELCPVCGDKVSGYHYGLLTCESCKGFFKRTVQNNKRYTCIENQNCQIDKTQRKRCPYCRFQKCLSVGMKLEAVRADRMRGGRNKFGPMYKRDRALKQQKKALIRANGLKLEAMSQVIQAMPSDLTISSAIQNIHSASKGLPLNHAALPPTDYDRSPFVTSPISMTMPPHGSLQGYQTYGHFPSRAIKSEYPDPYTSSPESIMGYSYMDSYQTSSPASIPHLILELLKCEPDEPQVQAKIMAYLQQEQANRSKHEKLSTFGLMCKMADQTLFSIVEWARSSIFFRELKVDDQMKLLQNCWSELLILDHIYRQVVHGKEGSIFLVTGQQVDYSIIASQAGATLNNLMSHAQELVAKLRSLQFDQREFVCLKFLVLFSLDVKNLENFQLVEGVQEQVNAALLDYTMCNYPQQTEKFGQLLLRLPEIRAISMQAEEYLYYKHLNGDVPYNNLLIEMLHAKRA
Steroidogenic factor 1, sequence (Q13285 whole entry): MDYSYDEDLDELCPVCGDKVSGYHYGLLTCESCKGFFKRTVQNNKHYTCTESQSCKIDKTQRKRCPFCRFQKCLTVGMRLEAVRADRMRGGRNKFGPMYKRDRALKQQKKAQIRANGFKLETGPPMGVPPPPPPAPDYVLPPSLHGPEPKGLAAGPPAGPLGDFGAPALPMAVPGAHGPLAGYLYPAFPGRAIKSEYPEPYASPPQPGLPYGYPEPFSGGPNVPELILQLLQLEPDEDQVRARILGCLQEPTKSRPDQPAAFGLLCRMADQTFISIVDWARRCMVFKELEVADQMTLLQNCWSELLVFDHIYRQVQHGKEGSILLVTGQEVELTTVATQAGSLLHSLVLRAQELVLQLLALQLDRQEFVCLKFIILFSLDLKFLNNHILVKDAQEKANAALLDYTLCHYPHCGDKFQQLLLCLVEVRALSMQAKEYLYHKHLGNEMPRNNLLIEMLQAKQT
Protein Wnt-3a, sequence (P27467 whole entry): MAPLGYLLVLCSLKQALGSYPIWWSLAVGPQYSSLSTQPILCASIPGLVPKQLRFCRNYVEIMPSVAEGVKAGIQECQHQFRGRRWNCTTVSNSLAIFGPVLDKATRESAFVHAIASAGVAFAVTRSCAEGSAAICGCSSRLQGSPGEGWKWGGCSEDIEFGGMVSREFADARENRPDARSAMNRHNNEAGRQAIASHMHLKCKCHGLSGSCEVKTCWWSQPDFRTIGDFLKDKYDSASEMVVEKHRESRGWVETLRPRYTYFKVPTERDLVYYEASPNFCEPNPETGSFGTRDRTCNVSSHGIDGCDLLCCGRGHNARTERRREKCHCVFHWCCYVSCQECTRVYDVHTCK
Cytochrome P450 2D6, sequence (P10635 whole entry, the tested form may be a part): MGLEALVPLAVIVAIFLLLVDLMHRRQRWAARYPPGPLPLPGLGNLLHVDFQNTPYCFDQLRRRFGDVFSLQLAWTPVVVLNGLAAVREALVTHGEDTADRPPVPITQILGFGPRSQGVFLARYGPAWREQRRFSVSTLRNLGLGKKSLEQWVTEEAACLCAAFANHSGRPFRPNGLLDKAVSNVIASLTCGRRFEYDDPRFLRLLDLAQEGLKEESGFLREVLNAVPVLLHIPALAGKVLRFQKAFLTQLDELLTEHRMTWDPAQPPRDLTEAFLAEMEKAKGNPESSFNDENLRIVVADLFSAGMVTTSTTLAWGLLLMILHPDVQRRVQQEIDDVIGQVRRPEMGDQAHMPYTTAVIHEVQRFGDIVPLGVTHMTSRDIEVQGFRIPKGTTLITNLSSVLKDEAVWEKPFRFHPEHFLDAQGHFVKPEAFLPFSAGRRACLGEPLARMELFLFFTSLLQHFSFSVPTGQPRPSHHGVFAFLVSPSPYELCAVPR

O=C(NCC1CCCO1)c1ccc(NC(=O)c2cccc([N+](=O)[O-])c2)cc1 (centres undefined)
IC50 (Steroidogenic factor 1): 1.32 µM (active) | IC50 [1]: 35.9 µM (inactive) | IC50 [2]: 3.99 µM (active)

CCN1CCCC1CNc1[nH]cnc2c3cc(Cl)ccc3nc1-2 (centres undefined)
AC50 [3]: > 20 µM (inactive) | IC50 (Protein Wnt-3a): 50 µM (inactive)

COc1ccc(Nc2c(-c3ccc(OC)cc3)nc3cnccn23)cc1
AC50 [4]: 1.34 µM (active)

COc1ccc(Cn2ccc(=O)c(Cc3c(Cl)cccc3Cl)c2C)cc1
AC50 [4]: 7.22 µM (active)

Cc1ccc(/C=C2\SC(=S)N(CCCC(=O)N3CCOCC3)C2=O)cc1
EC50 (BJ [5]): > 150 µM (inconclusive) | EC50 (BJ [6]): > 150 µM (not active) | EC50 (BJ [7]): > 66.7 µM (inactive) | EC50 [8]: 15.3 µM (active) | EC50 (BJ [9]): 7.06 µM (inconclusive)

COc1ccc(S(=O)(=O)NNC(=O)C2Cc3c(ccc4ccccc34)O2)cc1 (centres undefined)
AC50 (Cytochrome P450 1A2): 25.1 µM (inconclusive) | AC50 [10]: 74.8 µM (active) | AC50 (HEK293): > 350 µM (inactive) | AC50 (Cytochrome P450 2C19): 5.62 µM (inconclusive) | AC50 (Cytochrome P450 2D6): 39.8 µM (inconclusive) | AC50 [11]: 43.7 µM (active) | AC50 [12]: 13.2 µM (active)
